Data published in PMC7335202, “A quaternary ammonium silane antimicrobial triggers bacterial membrane and biofilm destruction” (Scientific Reports, 2020).

Molecular target: T1, Sortase A (Streptococcus mutans, UniProt Q8CM62)
T1 construct: gene srtA
T1 sequence (Q8CM62 1-246): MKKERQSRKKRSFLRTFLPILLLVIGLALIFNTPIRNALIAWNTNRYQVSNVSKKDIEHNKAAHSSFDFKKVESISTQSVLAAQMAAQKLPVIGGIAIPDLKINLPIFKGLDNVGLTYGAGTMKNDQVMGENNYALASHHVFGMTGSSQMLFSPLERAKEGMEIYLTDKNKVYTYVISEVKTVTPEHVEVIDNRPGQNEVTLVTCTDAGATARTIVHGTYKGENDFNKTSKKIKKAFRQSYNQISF
Assay: fluorescent peptide (Dabcyl-QALPETGEE-Edans) cleavage assay with purified sortase A; positive control inhibitor
Assay type: biochemical

## O=C(O)c1cc[c]([Hg][OH])cc1 [pHMB, ρ-hydroxymercuribenzoic acid]
  IC50: 24.5 ± 4.1 µM
